From the supplement of paper PMC10307832

Assays:
Test in all cases: relative viability (nuclei count vs DMSO), 5 days (fraction); higher = more cells survive
BI-D1870 + Luminespib = compound: CC(C)CCN1c2nc(Nc3cc(F)c(O)c(F)c3)ncc2N(C)C(=O)C1C [BI-D1870] + CCNC(=O)c1noc(-c2cc(C(C)C)c(O)cc2O)c1-c1ccc(CN2CCOCC2)cc1 [Luminespib] (partner 0.01 µM)
Summary of the method: (§1)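 Relative viability is defined as nuclei in treated wells over nuclei in vehicle wells. Duplicate plates were run and medians reported. Lung cancer cell lines in 1536-well plates were dosed by pin tool one day after seeding, with one drug or with a fixed anchor-drug dose plus five library-drug doses (not always all listed) in √10 steps, and nuclei were counted after 5 days.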

BI-D1870 + Olaparib = compound: CC(C)CCN1c2nc(Nc3cc(F)c(O)c(F)c3)ncc2N(C)C(=O)C1C [BI-D1870] + O=C(c1cc(Cc2n[nH]c(=O)c3ccccc23)ccc1F)N1CCN(C(=O)C2CC2)CC1 [Olaparib] (partner 8 µM)
Summary of the method: as §1

Zebularine + Pictilisib = compound: O=c1ncccn1[C@@H]1O[C@H](CO)[C@@H](O)[C@H]1O [Zebularine] + CS(=O)(=O)N1CCN(Cc2cc3nc(-c4cccc5[nH]ncc45)nc(N4CCOCC4)c3s2)CC1 [Pictilisib] (partner 1 µM)
Summary of the method: as §1

Zebularine + AZD7762 = compound: O=c1ncccn1[C@@H]1O[C@H](CO)[C@@H](O)[C@H]1O [Zebularine] + NC(=O)Nc1cc(-c2cccc(F)c2)sc1C(=O)N[C@H]1CCCNC1 [AZD7762] (partner 0.2 µM)
Summary of the method: as §1

Cell Line | relative viability (BI-D1870 + Luminespib; first compound 0.04 µM) | relative viability (BI-D1870 + Luminespib; first compound 0.1265 µM) | relative viability (BI-D1870 + Luminespib; first compound 0.4 µM) | relative viability (BI-D1870 + Luminespib; first compound 1.265 µM) | relative viability (BI-D1870 + Luminespib; first compound 4 µM) | relative viability (BI-D1870 + Olaparib; first compound 0.04 µM) | relative viability (BI-D1870 + Olaparib; first compound 0.1265 µM) | relative viability (BI-D1870 + Olaparib; first compound 0.4 µM) | relative viability (BI-D1870 + Olaparib; first compound 1.265 µM) | relative viability (BI-D1870 + Olaparib; first compound 4 µM) | relative viability (Zebularine + Pictilisib; first compound 1 µM) | relative viability (Zebularine + Pictilisib; first compound 3.162 µM) | relative viability (Zebularine + Pictilisib; first compound 10 µM) | relative viability (Zebularine + Pictilisib; first compound 31.62 µM) | relative viability (Zebularine + Pictilisib; first compound 100 µM) | relative viability (Zebularine + AZD7762; first compound 1 µM) | relative viability (Zebularine + AZD7762; first compound 3.162 µM) | relative viability (Zebularine + AZD7762; first compound 10 µM) | relative viability (Zebularine + AZD7762; first compound 31.62 µM) | relative viability (Zebularine + AZD7762; first compound 100 µM)
EMC-BAC-2 | 1.2 | 1.08 | 1.02 | 1.38 | 1.21 | 0.513 | 0.451 | 0.453 | 0.512 | 0.455 | 0.536 | 0.562 | 0.493 | 0.606 | 0.546 | 1.19 | 1.2 | 0.792 | 1.2 | 1.15
NCI-H1993 | 1 | 0.629 | 0.972 | 1 | 0.834 | 1.26 | 0.907 | 0.987 | 1.15 | 0.995 | 0.962 | 0.8 | – | 0.89 | 0.847 | 0.76 | 0.881 | 0.625 | 0.671 | 0.493
NCI-H647 | 0.158 | 0.0954 | 0.206 | 0.31 | 0.107 | 0.747 | 0.447 | 0.579 | 0.496 | 0.359 | 0.596 | 0.381 | 0.222 | 0.182 | 0.114 | 0.814 | 0.445 | 0.256 | 0.259 | 0.211
NCI-H1792 | 0.505 | 0.432 | 0.393 | 0.592 | 0.344 | 0.434 | 0.334 | 0.369 | 0.812 | 0.315 | 0.288 | 0.267 | 0.343 | 0.184 | 0.158 | 0.758 | 0.525 | 0.332 | 0.324 | 0.215
ChaGo-K-1 | 0.643 | 0.406 | 0.601 | 0.631 | 0.551 | 0.451 | 0.379 | 0.414 | 0.412 | 0.303 | 0.896 | 0.557 | 0.466 | 0.447 | 0.27 | 0.916 | 0.862 | 0.427 | 0.337 | 0.249
LOU-NH91 | 0.366 | 0.33 | 0.315 | 0.351 | 0.264 | 1.06 | 0.892 | 0.903 | 0.911 | 0.669 | 0.52 | 0.471 | 0.498 | 0.505 | 0.451 | 0.522 | 0.751 | 0.568 | 0.743 | 0.627
NCI-H2405 | 0.711 | 0.577 | 0.68 | 0.883 | 0.54 | 0.874 | 0.826 | 0.89 | 0.802 | 0.814 | 0.476 | 0.474 | 0.399 | 0.387 | 0.409 | 0.798 | 0.792 | 0.545 | 0.875 | 0.688
LCLC-97TM1 | 0.892 | 0.775 | 0.769 | 0.918 | 0.846 | 0.521 | 0.33 | 0.38 | 0.634 | 0.301 | 0.184 | 0.081 | 0.138 | 0.124 | 0.104 | 0.127 | 0.216 | 0.142 | 0.134 | 0.13
NCI-H596 | 1.16 | 0.985 | 1.27 | 0.786 | 0.915 | 0.73 | 0.743 | 0.625 | 0.671 | 0.63 | 0.304 | 0.373 | 0.361 | 0.42 | 0.362 | 1.23 | 1.09 | 0.843 | 1.01 | 1.07
NCI-H727 | 0.235 | 0.354 | 0.302 | 0.332 | 0.314 | 0.704 | 0.563 | 0.675 | 0.649 | 0.779 | 0.385 | 0.22 | 0.529 | 0.373 | 0.353 | 0.785 | 0.703 | 0.606 | 0.646 | 0.574
H3255 | 0.929 | 0.887 | 0.884 | 1.09 | 0.961 | 0.591 | 0.526 | 0.59 | 0.602 | 0.526 | 0.458 | 0.518 | – | 0.461 | 0.457 | 1.08 | 0.909 | 0.744 | 0.995 | 0.904
NCI-H1437 | 1.17 | 1.06 | 1.11 | 1.11 | 0.855 | 0.617 | 0.577 | 0.578 | 0.578 | 0.445 | 0.559 | 0.453 | – | 0.451 | 0.287 | 1.16 | 1.21 | 0.947 | 1.16 | 0.914
LU99A | 0.263 | 0.223 | 0.276 | 0.258 | 0.229 | 0.274 | 0.243 | 0.264 | 0.244 | 0.229 | 0.329 | 0.305 | 0.324 | 0.283 | 0.198 | 0.348 | 0.28 | 0.267 | 0.24 | 0.115
HCC-827 | 0.629 | 0.672 | 0.681 | 0.736 | 0.714 | 0.71 | 0.649 | 0.594 | 0.634 | 0.626 | 1.19 | 0.977 | 0.835 | 0.738 | 0.544 | 0.221 | 0.206 | 0.197 | 0.197 | 0.179
